Experimental data from PubChem BioAssay (NCI).
Several values for one entry are separate records, joined by “and”; a condition that tells them apart may be missing. Identical values can stand only once.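 In this assay, cells in 96-well plates receive the compound at five concentrations for 48 hours. Endpoints are linearly interpolated between the surrounding concentrations. At the GI50, growth is halved. TGI marks complete inhibition of growth.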

Columns and labels:
Experiment in all cases: DTP human tumour cell line panel, 48 h
[1] = tested on: COLO 205 colon
[2] = tested on: HCT-116 colon
[3] = tested on: HL-60(TB) leukemia
[4] = tested on: K-562 leukemia
[5] = tested on: KM12 colon
[6] = tested on: MOLT-4 leukemia
[7] = tested on: TK-10 renal
[8] = tested on: U251 CNS
[9] = tested on: UACC-257 melanoma
[10] = tested on: UO-31 renal

Structure (SMILES) | TGI [1] | TGI [2] | TGI [3] [µM] | TGI [4] | TGI [5] | TGI [6] [µM] | TGI [7] [µM] | TGI [8] | TGI [9] | TGI [10] | GI50 [1] [nM] | GI50 [2] [µM] | GI50 [3] [µM] | GI50 [5] [nM] | GI50 [6] [µM] | GI50 [7] [µM] | GI50 [8] [µM] | GI50 [9] [nM] | GI50 [10] [nM] | GI50 [4] [nM]
COC1=C(C)C(=O)c2c(c(COC(N)=O)c3n2CC2C3N2C)C1=O (stereo not given) | 0.119 µM | 0.0641 µM | 0.17 | 341 nM | 0.143 µM | 0.104 | 0.0542 | 0.0231 µM | 0.0641 µM | 0.232 µM | – | – | – | – | – | – | – | – | – | –
COC1(OC)C2(Cl)C(Cl)=C(Cl)C1(Cl)C1C=CC=CC12 (stereo not given) | > 100 µM | > 100 µM | > 100 | > 100000 nM | > 100 µM | – | > 100 | > 100 µM | > 100 µM | > 100 µM | – | – | – | – | – | – | – | – | – | –
NC(N)=N/N=C(\c1nc2ccc([N+](=O)[O-])cc2[nH]c1=O)C(O)c1ccc([N+](=O)[O-])cc1 (stereo not given) | > 100 µM | > 100 µM | > 100 | > 100000 nM | > 100 µM | > 100 | – | > 100 µM | > 100 µM | > 100 µM | – | – | – | – | – | – | – | – | – | –
CS/C(N)=N\NC(=O)CCC(=O)Nc1ccccc1C(F)(F)F | > 100 µM | > 100 µM | – | > 100000 nM | > 100 µM | > 100 | > 100 | > 100 µM | > 100 µM | > 100 µM | – | – | – | – | – | – | – | – | – | –
Clc1ccc(C2=Nn3c(COc4ccccc4Cl)nnc3SC2)c(Cl)c1 | 33.5 µM | 27.9 µM | 75.4 | – | 34 µM | > 100 | 95.4 | 45.8 µM | 60.9 µM | > 100 µM | 14700 | 14.7 | 19.4 | 16900 | 22.3 | 26.5 | 14.2 | 20800 | 31200 | –
Nn1c(=O)n(Cc2ccccc2)n(-c2ccccc2)c1=O | – | > 100 µM | > 100 | > 100000 nM | > 100 µM | > 100 | > 100 | > 100 µM | > 100 µM | > 100 µM | – | – | – | – | – | – | – | – | – | –
COc1ccccc1/C=C1\SC(=S)N(/C=C2\C(=O)Oc3ccccc3C2=O)C1=O | 50.4 µM | > 100 µM | – | > 100000 nM | > 100 µM | > 100 | 95.9 | > 100 µM | 62.2 µM | 83.2 µM | – | – | – | – | – | – | – | – | – | –
Clc1nc(Cl)c(Cl)c(-c2ccccc2)n1 | – | – | > 100 | – | 18 µM | 3.99 | 32.9 | 30.3 µM | 44.2 µM | 34.7 µM | – | – | – | – | – | – | – | – | – | –
COc1cccc2c1C(=O)c1c(O)c3c(c(O)c1C2=O)C[C@@](O)(C(C)=O)C[C@@H]3OC1OC(C)C(O)C(N)C1Br (stereo not given in full) | 2.99 µM and 1.23 µM | 0.147 µM and 0.188 µM | – | 1640 nM and 1030 nM | 0.426 µM and 0.453 µM | 0.0266 | 0.407 | 1.07 µM and 2.21 µM | 0.487 µM and 1.14 µM | 0.329 µM and 0.59 µM | 219 | – | – | 79.7 | – | – | – | 123 | 134 | 20.3
COc1cc(/C=C/c2cc(/C=C/c3ccc(O)c(OC)c3)n(C(=O)Nc3ccc(F)c(Cl)c3)n2)ccc1O | 3.25 µM | – | 0.88 | 1450 nM | 1.15 µM | 1.4 | 3.56 | – | 5.32 µM | 1.82 µM | 1760 | – | 0.31 | 310 | 0.282 | 0.58 | – | 1180 | 248 | 288
